Assay results from patent EP1216701A1, “Process to increase the concentration of meiosis-activating sterols (MAS) in the cholesterol synthesis and the use of potent inhibitors in the process” (Schering Aktiengesellschaft, priority 2000, dated 2002).

Columns and labels:
HepG2 cells = assay: Accumulation of cholesterol precursors / C29-sterols (MAS) in HepG2 cells, GC/MS (SIM); format: cell-based, Human; conditions: for Dienol (m/z 486) / Enol T-MAS (m/z 484) / Trienol FF-MAS (m/z 482): ± SD; for suppression of the Δ24 reduction step (accumulation of desmosterol): absence of miconazole, 10 µM potent inhibitors or 1 µM tamoxifen for 12 h; for FF-MAS Dimethylst.-trien (482 m/z) / Methylst.-dien (470 m/z) / T-MAS Dimethylst.-dien (484 m/z): bile acids 160 µM, 12-h, n=3, mean ± SD, ratio to internal standard epicoprostanol
Experimental: Human hepatoma HepG2 cells were cultured to confluency in 60-mm dishes in phenol-red-free Dulbecco's modified Eagle's medium (DMEM) containing Pen-Strep (100 µg/ml), glucose (10 mM), sodium bicarbonate (45 mM) and glutamine (4 mM) supplemented with 10% fetal calf serum as described previously (24). At the beginning of the experiment the medium was changed to serum-free DMEM supplemented with 10% lipid-free "controlled process serum replacement" (CPSR-1). Compounds were added from ethanolic stock solutions to produce final ethanol concentrations of 0.1-0.3% v/v. Controls received the same amount of ethanol. Aminotriazole was added in an aqueous solution. Slices of rat testis (25 µm; 25-50 mg wet weight) were incubated under the same conditions in a shaking water bath (37°C). For isotopomer spectral analysis (ISA) of lathosterol, 1-^13C-acetate was added in an aqueous solution to a final concentration of 1 mM.
(§1) Cells were washed three times with ice cold PBS (pH 7.4) (once with 2 mg/ml BSA and twice with PBS alone). Epicoprostanol (1 µg in 50 µl of hexane) was added as internal standard to each sample. Sterols were extracted in hexane/isopropanol (3:2 v/v; two times with 4 ml). After drying under nitrogen and alkaline hydrolysis (1 N NaOH in 80% ethanol, 1.5 h at 70°C), the sterols were extracted with cyclohexane (two times with 3 ml). After drying under nitrogen, sterols were converted to their trimethylsilyl (TMS) derivatives by adding 100 µl bis(trimethylsilyl)trifluoracetamide (Pierce)/n-decane (1:1; v/v) and heating for 1 h at 70°C in a conical glass tube. This solution (1-2 µl) was used for gas-chromatography/mass-spectrometry (GC/MS). Rat testes (0.05-0.15 g) were homogenized manually, and lipids were extracted in hexane/isopropanol (3:2 v/v; two times with 4 ml). The extracts were deproteinized with acetone (3 ml) and processed as described above. The observed sterol levels in testis were normalized to correspond to 0.1 g of tissue (wet weight).
(§2) Gas-chromatography was done in the splitless mode with temperature programming as follows: 150°C for 1 min, followed by 20°C/min up to 260°C and 10°C/min up to 280°C (hold for 15 min). Mass spectral data were collected either in the full-scan mode (m/z 50-550) or by selective ion monitoring (SIM). For SIM analyses the electron multiplier voltage was raised by 300 V after the elution of lathosterol to increase the sensitivity of detection for lanosterol, dihydrolanosterol, methylsterols, dimethylsterols and plant sterols. The internal standard epicoprostanol was monitored at m/z 370. […] Peak integration was performed manually, and sterols were quantified from SIM analyses against the internal standard. Unless stated otherwise, MAS amounts are given as a percentage of the control.

Δ24-reductase = biological target: T1, Δ24-reductase (Homo sapiens, UniProt Q15392); assay: Δ24-reductase assay (conversion of lanosterol to dihydrolanosterol in the presence of miconazole); format: cell-based; conditions: HepG2 cells; conversion of lanosterol to dihydrolanosterol with added miconazole
T1 construct: endogenous in cells; host or cells: HepG2
T1 sequence (Q15392 23-516): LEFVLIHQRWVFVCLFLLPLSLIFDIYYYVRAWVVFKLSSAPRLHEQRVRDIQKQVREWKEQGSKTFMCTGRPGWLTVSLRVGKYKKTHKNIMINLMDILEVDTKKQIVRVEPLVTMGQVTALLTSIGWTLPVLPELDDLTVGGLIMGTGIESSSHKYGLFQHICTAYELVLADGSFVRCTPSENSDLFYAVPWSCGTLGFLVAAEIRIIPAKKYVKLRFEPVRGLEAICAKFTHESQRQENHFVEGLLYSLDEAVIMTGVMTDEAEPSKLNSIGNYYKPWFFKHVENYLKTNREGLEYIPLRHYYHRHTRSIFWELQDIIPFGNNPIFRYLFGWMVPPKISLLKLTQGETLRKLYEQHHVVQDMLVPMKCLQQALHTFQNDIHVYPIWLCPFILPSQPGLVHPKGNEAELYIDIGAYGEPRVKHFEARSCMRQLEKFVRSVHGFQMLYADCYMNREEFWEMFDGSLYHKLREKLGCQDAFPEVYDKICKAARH
Experimental: HepG2 cells were incubated for 12 h with 10 µM simvastatin (a kind gift from M. Stapff (MSD, Germany)) to deplete cholesterol precursors. Thereafter, the medium was changed to one containing 10 µM simvastatin, 10 µM miconazole (an inhibitor of 14α-demethylation) and 6 µg/dish lanosterol. After 12 h incubation, neutral sterols were extracted as described above, and the samples were monitored for lanosterol (m/z 498 (M^+) and m/z 393 (M-TMSOH-CH3)) and dihydrolanosterol (m/z 500 (M^+) and m/z 395 (M-TMSOH-CH3)) by GC/MS. Dihydrolanosterol was quantified by comparing the ratio of SIM abundances at m/z 395 and 370 (epicoprostanol) against a standard curve constructed from SIM results on mixtures of authentic dihydrolanosterol and epicoprostanol. Desmosterol was quantified analogously by SIM.

liver slices = assay: Influence of bile acids on methylsterols and dimethylsterols in liver slices; format: cell-based; conditions: bile acids 160 µM for 9-h, n=2 for UDCA, CDCA, DCA, n=3 for CA and LCA, ratio to campesterol
Experimental: as §1, §2

[1] = HepG2 cells, Conc. 10 µM (combinations 10 + 10 µM), 12 h, n=2
[2] = HepG2 cells, aminotriazole 20000 µM, tamoxifen 1 µM, combination 20000 + 1 µM, incubation time not clearly stated

Compound	FF-MAS Dimethylst.-trien (482 m/z) (HepG2 cells; HepG2 cells)	Methylst.-dien (470 m/z) (HepG2 cells; HepG2 cells)	T-MAS Dimethylst.-dien (484 m/z) (HepG2 cells; HepG2 cells)	FF-MAS Dimethylst.-trien (482 m/z) (liver slices)	Methylst.-dien (470 m/z) (liver slices)	T-MAS Dimethylst.-dien (484 m/z) (liver slices)	also measured
CC(=O)[C@@]1(O)CC[C@H]2[C@@H]3CC=C4C[C@@H](O)CC[C@]4(C)[C@H]3CC[C@@]21C [17α-OH-Pregnenolone, 17α-Hydroxy-pregnenolone]							Dienol (m/z 486) (HepG2 cells; [1]): 52 ± 6 % of control; Enol T-MAS (m/z 484) (HepG2 cells; [1]): 780 ± 57 % of control; Trienol FF-MAS (m/z 482) (HepG2 cells; [1]): 242 ± 19 % of control; suppression of the Δ24 reduction step (accumulation of desmosterol) (HepG2 cells; HepG2 cells): strongly suppressed; order of suppression of Δ24 reduction (Δ24-reductase): pregnenolone > progesterone > 17α-OH-pregnenolone >> 17α-OH-progesterone
CC/C(=C(\c1ccccc1)c1ccc(OCCN(C)C)cc1)c1ccccc1 [Tamoxifen]							suppression of the Δ24 reduction step (accumulation of desmosterol) (HepG2 cells; HepG2 cells): strongly suppressed; Dienol (m/z 486) (HepG2 cells; [2]): 34 ± 3 % of control; Enol T-MAS (m/z 484) (HepG2 cells; [2]): 617 ± 47 % of control; Trienol FF-MAS (m/z 482) (HepG2 cells; [2]): 297 ± 41 % of control
C[C@H](CCC(=O)O)[C@H]1CC[C@H]2[C@@H]3CC[C@@H]4C[C@H](O)CC[C@]4(C)[C@H]3CC[C@]12C [LCA, Lithocholic acid]	453 ± 88 % of control	459 ± 29 % of control	744 ± 155 % of control	91 % of control	67 % of control	172 % of control	
COc1ccc(CCN(C)CCCC(C#N)(c2ccc(OC)c(OC)c2)C(C)C)cc1OC (centres unmarked) [Verapamil]							Dienol (m/z 486) (HepG2 cells; [1]): 18 ± 4 % of control; Enol T-MAS (m/z 484) (HepG2 cells; [1]): 416 ± 79 % of control; Trienol FF-MAS (m/z 482) (HepG2 cells; [1]): 498 ± 103 % of control
C[C@H](CCC(=O)O)[C@H]1CC[C@H]2[C@@H]3CC[C@@H]4C[C@H](O)CC[C@]4(C)[C@H]3C[C@H](O)[C@]12C [DCA, Deoxycholic acid]	226 ± 17 % of control	211 ± 6 % of control	320 ± 32 % of control	103 % of control	144 % of control	210 % of control	
C[C@]12CC[C@@H]3c4ccc(O)cc4CC[C@H]3[C@@H]1CC[C@@H]2O [β-estradiol, 17β-Estradiol]							changes in the cholesterol precursor pattern (HepG2 cells; HepG2 cells, at 10 µM, compared to potent inhibitors, data not shown): only minor changes; effect on the accumulation of cholesterol precursors observed with progesterone alone (HepG2 cells; β-estradiol 10 µM in combination with progesterone 10 µM): did not alter
C[C@H](CCC(=O)O)[C@H]1CC[C@H]2[C@@H]3[C@H](O)C[C@@H]4C[C@H](O)CC[C@]4(C)[C@H]3CC[C@]12C [CDCA, Chenodeoxycholic acid]	197 ± 10 % of control	187 ± 5 % of control	234 ± 11 % of control	128 % of control	181 % of control	296 % of control	
